These results are taken from US20230109839A1, “THERAPEUTIC AGENT FOR TAUOPATHIES” (SUMITOMO PHARMA CO., LTD., priority 2020, published 2023).

Where two headings read alike, the source gives them in different places.

The target in the assay is T1, human Nav1.1 (Homo sapiens, UniProt P35498).
T1 construct: host or cells: HEK293
In words: Amplification of Nav1.1-derived voltage-gated sodium current (Nav1.1 current), automated patch clamp (Test 1). It is filed as cell-based. A digest of the protocol:
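HEK293 cells stably expressing human Nav1.1, restricted to cells with >500 pA current, were recorded by automated voltage-clamp patch clamp with a ramp voltage stimulus. Compounds were applied in HEPES-buffered extracellular solution with 1% DMSO. Amplification (%) = 100×(peak or AUC after/before compound)−100.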
Background: In patch-clamp work, channel activity is measured electrically.

Setting [1] is: Concentration for evaluation 10 μM, HEK293 cell line stably expressing human Nav1.1.
Setting [2] is: HEK293, Concentration for evaluation 1 μM, HEK293 cell line stably expressing human Nav1.1, read-out: Nav1.1 current amplification rate (%).
Setting [3] is: Concentration for evaluation 50 μM, HEK293 cell line stably expressing human Nav1.1.
The mark [4] stands for this setting: Concentration for evaluation 1 μM, HEK293 cell line stably expressing human Nav1.1.
Where [5] appears, read: concentration for evaluation 1 μM, HEK293 stably expressing human Nav1.1.
[6] abbreviates: Concentration for evaluation 3 μM, HEK293 cell line stably expressing human Nav1.1.
[7] abbreviates: HEK293, concentration for evaluation 1 μM, HEK293 stably expressing human Nav1.1, read-out: Nav1.1 current amplification rate (%).

For `CC1(C)CCC=C(c2ccc(=O)n(CC(=O)Nc3ccc(C#N)cc3)n2)C1` [Example 45], the “Nav1.1 current amplification rate (%)” value under setting [1] is on record as 202%.
In the case of `Cc1cc(NC(=O)Cn2ncc3ncc(N4CCC5(CC5)C(F)(F)C4)nc32)cc2ncnn12` [Example 741], the activation at 1 µM under setting [2] turned out to be 61%.
As to `CC1CC=C(c2ccc(=O)n(CC(=O)NC3CCN(c4ccccc4)C3)n2)CC1` (stereo not shown) [Example 369], the “Nav1.1 current amplification rate (%)” value under setting [3] is 10%.
`O=C(Cn1ncc2ncc(N3CCC4(CC4)C(F)(F)C3)nc21)Nc1ccc2ncnn2c1` [Example 659]: the “Nav1.1 current amplification rate (%)” value under setting [4] is recorded as 25%.
Consider `COC1CN(Cc2cncc(NC(=O)Cn3nc(C4=CCC(C)CC4)ccc3=O)c2)C1` (stereo not shown) [Example 366], for which the “Nav1.1 current amplification rate (%)” value under setting [3] came out at 37%.
Regarding `CN(c1ncc2cnn(CC(=O)Nc3ccn4ncnc4c3)c2n1)C1CCC(F)(F)C1` (stereo not shown) [Example 796], the “Nav1.1 current amplification rate (%)” value under setting [5] is recorded as 66%.
As to `CN(c1cnc2cnn(CC(=O)N3CCc4c(C#N)cccc43)c2n1)C1CC1` [Example 715], under setting [4], the “Nav1.1 current amplification rate (%)” value came to 13%.
On to `CC1=CCN(c2ncc3cnn(CC(=O)Nc4ccn5ncnc5c4)c3n2)CC1` [Example 784], for which the “Nav1.1 current amplification rate (%)” value under setting [4] is 45%.
`Cc1nccn1-c1ccc(NC(=O)Cn2ncc3ncc(N(C)C4CCCC4)nc32)cc1` [Example 681]: under setting [4], the “Nav1.1 current amplification rate (%)” value was determined as 26%.
With `CN(c1cnc2cnn(CC(=O)N3CCc4c(CN5CC=CC5)cccc43)c2n1)C1CC1` [Example 720], the “Nav1.1 current amplification rate (%)” value under setting [4] was 230%.
For `COc1cc(C2=CCC(C)(C)CC2)nn(CC(=O)N2CCc3c(N4CCOCC4)cccc32)c1=O` [Example 468], the “Nav1.1 current amplification rate (%)” value under setting [4] is reported as 275%.
In the case of `CC1CC=C(c2ccc(=O)n(CC(=O)N3CCc4c(CNCC(F)F)cccc43)n2)CC1` (stereo not shown) [Example 312], under setting [4], the “Nav1.1 current amplification rate (%)” value was 80%.
Take `CC1CCN(c2ccc(=O)n(CC(=O)Nc3ccc4c(c3)NC(=O)C4)n2)CC1` [Example 86]: the “Nav1.1 current amplification rate (%)” value under setting [1] was 73%.
As for `CC1CC=C(c2ccc(=O)n(CC(=O)Nc3ccnc(CN4CCOCC4)c3)n2)CC1` (stereo not shown) [Example 373], the “Nav1.1 current amplification rate (%)” value under setting [1] came to 35%.
On to `CC1(C)CCN(c2ccc3cnn(CC(=O)Nc4ccn5ncnc5c4)c3n2)CC1` [Example 856], for which, under setting [5], the “Nav1.1 current amplification rate (%)” value is on record as 50%.
Same read-out and setting: then `O=C(Cn1ncc2ccc(C3=COCCC3)nc21)Nc1ccn2ccnc2c1` [Example 869], with 17%.
Regarding `CC1CC=C(c2ccc(=O)n(CC(=O)Nc3ccc4cncn4c3)n2)CC1` (stereo not shown) [Example 344], the “Nav1.1 current amplification rate (%)” value under setting [4] is listed as 69%.
Regarding `CC1CCN(c2ncc3cnn(CC(=O)N4CCN(c5cccnc5)CC4)c3n2)CC1` [Example 835], the activation at 50 µM (HEK293, concentration for evaluation 50 μM, HEK293 stably expressing human Nav1.1, read-out: Nav1.1 current amplification rate (%)) came to 118%.
As for `COCCCN1CC2(CCN(C(=O)Cn3nc(C4=CCC(C)CC4)ccc3=O)C2)C1` (stereo not shown) [Example 308], under setting [3], the “Nav1.1 current amplification rate (%)” value was 9%.
On to `N#Cc1ccc(NC(=O)Cn2nc(N3CCCCC3)ccc2=O)cc1` [Example 3], for which the “Nav1.1 current amplification rate (%)” value under setting [1] stood at 40%.
Consider `CC1CC=C(c2cnc3cnn(CC(=O)Nc4ccc5ncnn5c4)c3n2)CC1` (stereo not shown) [Example 653], for which, under setting [4], the “Nav1.1 current amplification rate (%)” value is recorded as 173%.
In the case of `CN(c1ncc2cnn(CC(=O)Nc3ccn4ncnc4c3)c2n1)C1CCCC1(F)F` (stereo not shown) [Example 801], the “Nav1.1 current amplification rate (%)” value under setting [5] was determined as 122%.
`Cc1cc(NC(=O)Cn2nc(N3CCC(C)CC3)ccc2=O)cc(C)n1` [Example 54]: the “Nav1.1 current amplification rate (%)” value under setting [1] worked out at 20%.
In the case of `CC1CC=C(c2ccc(=O)n(CC(=O)Nc3ccc4ncnn4c3)n2)CC1` (stereo not shown) [Example 339], the “Nav1.1 current amplification rate (%)” value under setting [4] came out at 127%.
For the compound `CN(c1ncc2cnn(CC(=O)Nc3ccc4ncnn4c3)c2n1)C1CC2(CC2)C1` [Example 820], the “Nav1.1 current amplification rate (%)” value under setting [5] turned out to be 50%.
On to `CC1CC=C(c2ccc(=O)n(CC(=O)N3CC=C(c4cncnc4)CC3)n2)CC1` (stereo not shown) [Example 398], for which the “Nav1.1 current amplification rate (%)” value under setting [1] turned out to be 175%.
On to `CC1CCN(c2nn(CC(=O)Nc3ccc(C#N)cc3)c(=O)c3c2CCCC3)CC1` [Example 36], for which, under setting [1], the “Nav1.1 current amplification rate (%)” value is given as 312%.
Take `CC1CC=C(c2ncc3cnn(CC(=O)Nc4ccn5ncnc5c4)c3n2)CC1` (racemic) [Example 764]: under setting [4], the “Nav1.1 current amplification rate (%)” value is 164%.
On to `COc1cc(C2=CCC(C(F)(F)F)CC2)nn(CC(=O)Nc2ccn3ccnc3c2)c1=O` (stereo not shown) [Example 462], for which the “Nav1.1 current amplification rate (%)” value under setting [1] came to 124%.
`CC1CC=C(c2ccc(=O)n(CC(=O)N3CC=C(c4ccncc4)CC3)n2)CC1` (stereo not shown) [Example 419]: the “Nav1.1 current amplification rate (%)” value under setting [4] is 66%.
For `CN(CC1CC(F)(F)C1)c1ncc2cnn(CC(=O)Nc3ccn4ncnc4c3)c2n1` [Example 799], under setting [5], the “Nav1.1 current amplification rate (%)” value is reported as 35%.
Turning to `CC1CC=C(c2cnc3cnn(CC(=O)Nc4ccc5ocnc5c4)c3n2)CC1` (stereo not shown) [Example 735], the activation at 1 µM under setting [2] came out at 321%.
Consider `COc1cc(C2=CCC(C)(C)CC2)nn(CC(=O)Nc2ccn3ccnc3c2)c1=O` [Example 456], for which the “Nav1.1 current amplification rate (%)” value under setting [1] is listed as 224%.
`CN(c1cnc2cnn(CC(=O)Nc3ccc(C#N)nc3)c2n1)C1CC(C)(C)C1` [Example 756]: under setting [2], the activation at 1 µM was found to be 104%.
Turning to `N#Cc1ccc(NC(=O)Cn2nc(N3CCCC(C(N)=O)C3)ccc2=O)cc1` (stereo not shown) [Example 8], under setting [1], the “Nav1.1 current amplification rate (%)” value is 4%.
Take `N#Cc1cncc(NC(=O)Cn2nc(N3CCCCC3)ccc2=O)c1` [Example 108]: under “HEK293, Concentration for evaluation 10 μM, HEK293 cell line stably expressing human Nav1.1, read-out: Nav1.1 current amplification rate (%)”, the activation at 10 µM is 5%.
For `CN(CC1CCC1)c1cnc2cnn(CC(=O)Nc3ccn4ncnc4c3)c2n1` [Example 625], the “Nav1.1 current amplification rate (%)” value under setting [4] turned out to be 255%.
For `N#Cc1cnc(NC(=O)Cn2ncc3ncc(N4CCC5(CC5)C(F)(F)C4)nc32)cn1` [Example 754], the activation at 1 µM under setting [2] came to 14%.
Consider `O=C(Cn1nc(C2=CCCCC2)ccc1=O)Nc1ccn2ccnc2c1` [Example 458], for which the “Nav1.1 current amplification rate (%)” value under setting [1] is 24%.
With `N#Cc1ncc(NC(=O)Cn2ncc3cnc(N4CCC5(CC5)C(F)(F)C4)nc32)cn1` [Example 827], the “Nav1.1 current amplification rate (%)” value under setting [5] is reported as 29%.
With `CC1CC=C(c2ccc(=O)n(CC(=O)N3CCc4c(OCC(C)(C)O)cccc43)n2)CC1` (stereo not shown) [Example 307], the “Nav1.1 current amplification rate (%)” value under setting [6] was determined as 320%.
For the compound `CN(c1cnc2cnn(CC(=O)Nc3ccc4ncnn4c3)c2n1)C1CC1` [Example 664], under setting [4], the “Nav1.1 current amplification rate (%)” value was found to be 34%.
Take `O=C(Cn1ncc2cnc(N3CCC4(CC4)C(F)(F)C3)nc21)Nc1cccnc1` [Example 826]: the “Nav1.1 current amplification rate (%)” value under setting [5] worked out at 31%.
Regarding `CC1CC=C(c2ccc(=O)n(CC(=O)Nc3ccnc(C4=CCN(C)C4)c3)n2)CC1` (stereo not shown) [Example 371], the “Nav1.1 current amplification rate (%)” value under setting [3] is 64%.
`CC1CC=C(c2ccc(=O)n(CC(=O)N3CCc4c(CN5CCCC5)cccc43)n2)CC1` (stereo not shown) [Example 271]: the “Nav1.1 current amplification rate (%)” value under setting [6] is on record as 48%.
On to `O=C(Cn1ncc2ccc(-c3ccc(F)cc3F)nc21)Nc1ccc2ncnn2c1` [Example 871], for which the “Nav1.1 current amplification rate (%)” value under setting [5] is on record as 10%.
`COc1cc(C2=CCC(C(F)(F)F)CC2)nn(CC(=O)Nc2ccc3ocnc3c2)c1=O` (racemic) [Example 447]: the “Nav1.1 current amplification rate (%)” value under setting [1] is given as 148%.
In the case of `CN(c1ncc2cnn(CC(=O)N3CCc4c(-c5ccnnc5)cccc43)c2n1)C1CC1` [Example 838], the activation at 0.3 µM (HEK293, concentration for evaluation 0.3 μM, HEK293 stably expressing human Nav1.1, read-out: Nav1.1 current amplification rate (%)) is 122%.
Consider `CC1CCN(c2cnc3cnn(CC(=O)Nc4ccn5ncnc5c4)c3n2)CC1` [Example 572, 2-[6-(4-Methylpiperidin-1-yl)-1H-pyrazolo[3,4-b]pyrazin-1-yl]-N-([1,2,4]triazolo[1,5-a]pyridin-7-yl)acetamide], for which, under setting [2], the activation at 1 µM came out at 49%.
Turning to `O=C(Cn1ncc2cnc(N3CCC4(CC4)C(F)(F)C3)nc21)Nc1ccc2ncnn2c1` [Example 813], under setting [5], the “Nav1.1 current amplification rate (%)” value is 105%.
Regarding `CN(c1cnc2cnn(CC(=O)Nc3cncc(Br)c3)c2n1)C1CCC1` [Example 692], the “Nav1.1 current amplification rate (%)” value under setting [4] was 33%.
With `CN(c1ccc2cnn(CC(=O)Nc3cnc4cccnc4c3)c2n1)C1CCCC1` [Example 891], the activation at 1 µM under setting [7] amounted to 81%.
Consider `Cc1noc2ccc(NC(=O)Cn3nc(C4=CCC(C)CC4)ccc3=O)cc12` (racemic) [Example 423], for which the “Nav1.1 current amplification rate (%)” value under setting [1] turned out to be 11%.
For `CC1CCN(c2ccc(=O)n(CC(=O)Nc3ccc4sc(N(C)C)nc4c3)n2)CC1` [Example 92], under setting [1], the “Nav1.1 current amplification rate (%)” value amounted to 88%.
Same read-out and setting: then `CC1CC=C(c2ccc(=O)n(CC(=O)N3CC=C(c4cncc(F)c4)CC3)n2)CC1` (stereo not shown) [Example 397], with 273%; and `Cc1nc2cc(NC(=O)Cn3nc(C4=CCC(C)CC4)ccc3=O)ccc2o1` (racemic) [Example 422], with 287%.
Take `CN(c1cnc2cnn(CC(=O)Nc3cc4ccccc4cn3)c2n1)C1CC1` [Example 718]: under setting [3], the “Nav1.1 current amplification rate (%)” value was determined as 34%.
On to `CN(c1cnc2cnn(CC(=O)Nc3ccc4cnnn4c3)c2n1)C1CC1` [Example 707], for which the “Nav1.1 current amplification rate (%)” value under setting [4] is 62%.
Consider `CC1CC=C(c2ncc3cnn(CC(=O)Nc4ccn5ccnc5c4)c3n2)CC1` (stereo not shown) [Example 832], for which the activation at 1 µM under setting [7] was found to be 204%.
`CN(c1cnc2cnn(CC(=O)N3CCc4c(C5CC5)cccc43)c2n1)C1CC1` [Example 730]: the “Nav1.1 current amplification rate (%)” value under setting [4] is 133%.
Regarding `CC1CC=C(c2ccc(=O)n(CC(=O)N3CCc4cc(OCC(C)(C)O)ccc43)n2)CC1` (stereo not shown) [Example 320], the “Nav1.1 current amplification rate (%)” value under setting [4] is 10%.
